Data set [1] has as its system Leishmania amazonensis. Put plainly: Antileishmanial activity against promastigote form of Leishmania amazonensis assessed as parasite growth inhibition incubated for 72 hrs by neubauer counting chamber analysis. It is filed as functional, organism-based.
The test system of data set [2] is Leishmania amazonensis. In words: Antileishmanial activity against amastigote form of Leishmania amazonensis assessed as parasite growth inhibition. In kind it is functional, organism-based.
For data set [3], the system named is Leishmania amazonensis. In words: Antileishmanial activity against Leishmania amazonensis infected in BALB/c mouse assessed as reduction in parasite load at 10 mg/kg, sc administered for 14 days relative to control. In kind it is functional. Also noted: scale not given: the % may be the effect or the level left. The following applies: time 14.0 day.
Data set [4] has as its target Acetylcholinesterase (Homo sapiens) (UniProt P22303). In words: Inhibition of AChE (unknown origin) assessed as inhibition zone by Ellman's colorimetric method.
For data set [5], the system named is Leishmania amazonensis. Put plainly: Antileishmanial activity against promastigote form of Leishmania amazonensis assessed as inhibition of parasite growth at 200 uM incubated for 72 hrs by neubauer counting chamber analysis relative to control. In kind it is functional.
Data set [6] deals with Leishmania donovani. Put plainly: Antileishmanial activity against promastigote form of Leishmania donovani. In kind it is functional, organism-based.
The test system of data set [7] is Leishmania donovani. Put plainly: Antileishmanial activity against amastigote form of Leishmania donovani. It is filed as functional, organism-based.
Data set [8] concerns Leishmania major. Put plainly: Antileishmanial activity against promastigote form of Leishmania major assessed as inhibition of parasite growth by MTT colorimetric cell viability assay. It is filed as functional, organism-based.
The test system of data set [9] is Leishmania major. In words: Antileishmanial activity against promastigote form of Leishmania major assessed as inhibition incubated for 72 hrs by MTT assay. It is filed as functional, organism-based.
Data set [10] deals with Leishmania amazonensis. In words: Antileishmanial activity against promastigote form of Leishmania amazonensis assessed as parasite growth inhibition incubated for 72 hrs by regression analysis. In kind it is functional, organism-based.
Data set [11] deals with Leishmania amazonensis. In words: Antileishmanial activity against intracellular Leishmania amazonensis MHOM/BR/75/Josefa amastigotes infected in BALB/c mouse peritoneal macrophages assessed as parasite growth inhibition incubated for 24 hrs by regression analysis. It is filed as functional, organism-based. The following applies: Peritoneal macrophage.
Data set [12] in a line: Selectivity index, ratio of CC50 for cytotoxicity against mouse J774G8 cells to IC50 for antileishmanial activity against intracellular Leishmania amazonensis MHOM/BR/75/Josefa amastigotes infected in BALB/c mouse peritoneal macrophages. In kind it is toxicity, cell-based. The following applies: read-out: Ratio CC50/IC50.
For data set [13], the system named is Leishmania amazonensis. Put plainly: Antileishmanial activity against promastigote form of Leishmania amazonensis. In kind it is functional, organism-based.
The test system of data set [14] is Leishmania infantum. In words: Antileishmanial activity against promastigote form of Leishmania infantum. It is filed as functional, organism-based.
The test system of data set [15] is Leishmania braziliensis. In words: Antileishmanial activity against promastigote form of Leishmania braziliensis. It is filed as functional, organism-based. The following applies: Leishmania braziliensis.
Data set [16] relates to Leishmania infantum. Put plainly: Antileishmanial activity against axenic amastigote stage of Leishmania infantum infected in human THP-1 cells assessed as inhibition of parasite growth incubated for 24 hrs by flow cytometry assay. It is filed as functional, organism-based. The following applies: THP-1, 24 h.
Data set [17] has as its system THP-1. In words: Cytotoxicity against human THP-1 cells assessed as inhibition incubated for 24 hrs by flow cytometry assay. In kind it is functional, cell-based. The following applies: THP-1, 24 h.
The nature of data set [18]: Selectivity index, ratio of IC50 for cytotoxicity against human THP-1 cells to IC50 for antileishmanial activity against axenic amastigote stage of Leishmania infantum infected in human THP-1 cells. It is filed as toxicity, cell-based. The following applies: read-out: Selectivity Index.
The subject of data set [19] is Leishmania donovani. Put plainly: Antileishmanial activity against amastigote form of Leishmania donovani at 50 uM assessed as inhibition of parasite growth relative to control. In kind it is functional.
Data set [20] concerns Leishmania mexicana. In words: Antileishmanial activity against promastigote form of Leishmania mexicana. In kind it is functional, organism-based.
Data set [21] has as its system Leishmania major. Put plainly: Antileishmanial activity against promastigote form of Leishmania major. It is filed as functional, organism-based.
For data set [22], the system named is Leishmania chagasi. In words: Antileishmanial activity against promastigote form of Leishmania chagasi. In kind it is functional, organism-based.
In data set [23] the test system is Leishmania panamensis. Put plainly: Antileishmanial activity against intracellular Leishmania panamensis amastigotes infected in human U-937 cells assessed as inhibition at 20 ug/mL incubated for 72 hrs by flow cytometry relative to control. It is filed as functional.

pIC50: −log10 of the molar value. Converted amounts (≈) assume the structure as drawn.

Sequence of Acetylcholinesterase (Homo sapiens) (P22303 whole entry): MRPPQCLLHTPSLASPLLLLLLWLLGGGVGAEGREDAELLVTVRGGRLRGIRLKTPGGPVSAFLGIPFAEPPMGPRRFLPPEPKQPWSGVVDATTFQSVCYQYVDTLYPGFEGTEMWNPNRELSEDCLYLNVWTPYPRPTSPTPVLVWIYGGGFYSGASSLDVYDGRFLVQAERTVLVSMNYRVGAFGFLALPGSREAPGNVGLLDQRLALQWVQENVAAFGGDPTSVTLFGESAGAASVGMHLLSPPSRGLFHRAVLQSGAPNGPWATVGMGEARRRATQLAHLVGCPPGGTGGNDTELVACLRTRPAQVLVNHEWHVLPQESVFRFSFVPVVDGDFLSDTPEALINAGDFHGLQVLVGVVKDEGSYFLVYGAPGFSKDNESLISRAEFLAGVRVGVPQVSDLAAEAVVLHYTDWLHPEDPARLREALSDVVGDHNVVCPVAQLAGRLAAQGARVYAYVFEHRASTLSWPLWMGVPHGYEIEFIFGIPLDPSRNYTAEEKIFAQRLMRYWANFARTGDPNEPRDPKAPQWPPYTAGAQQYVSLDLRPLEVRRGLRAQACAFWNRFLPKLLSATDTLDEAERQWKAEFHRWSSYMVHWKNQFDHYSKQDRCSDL

Regarding `O=c1cc(-c2ccccc2)c2ccc(O[C@@H]3O[C@H](CO)[C@@H](O)[C@H](O)[C@H]3O)cc2o1`, in [1], the pIC50 was 4.04.
For `COC(=O)C1=C(N)Oc2cc(O)c3c(C)cc(=O)oc3c2C1c1ccc(Br)cc1` (stereo not drawn), the pIC50 in data set [2] was 4.48.
With MEGLUMINE ANTIMONATE, in [3], the Activity came out at 95.2%.
In the case of `CNC(=O)Oc1ccc2c(c1)[C@]1(C)CCN(C)[C@@H]1N2C`, the inhibition zone (IZ) in [4] was determined as 9 mm.
Turning to `COc1cc2ccc(=O)oc2c2c1OC(C)(C)C=C2`, the inhibition at 200 µM in data set [5] stood at 100%. The pIC50 in data set [1] is 4.15.
Regarding `COc1cc(O[C@@H]2O[C@H](CO)[C@@H](O)[C@H](O)[C@H]2O)c2c(-c3ccc(OC)c(OC)c3)cc(=O)oc2c1`, the values for the negative logarithm of the IC50 (pIC50) in [6] and in [7] were 4.99 and less than 4.05, respectively.
Consider `CC1CC(CC(C)(O)C(O)COc2ccc3ccc(=O)oc3c2O)OC1=O` (stereo not drawn), for which the negative logarithm of the IC50 (pIC50) in data set [8] is less than 4.00.
Take `O=c1oc2ccccc2cc1-c1nnc2n1N=C(c1ccc(Cl)c(Cl)c1)CS2`: the pIC50 in data set [9] is 6.05.
For the molecule `CCC(C)C(=O)c1c(O)c(CCC(C)C)c(O)c2c1OC(=O)CC2c1ccccc1` (stereo not drawn), the negative logarithm of the IC50 (pIC50) was 6.05 in [10] and 6.22 in data set [11]. The selectivity ratio in [12] turned out to be 142.
In the case of `CCC(C)C(OC)c1c(OC)c(CC=C(C)C)c(OC)c2c(-c3ccccc3)cc(=O)oc12` (stereo not drawn), the results for the negative logarithm of the IC50 (pIC50) in [10] and in data set [11] were 5.72 and 4.65, respectively.
With `CCCCCCCCCCCCCCCCOP(=O)([O-])OCC[N+](C)(C)C` [MILTEFOSINE], the pIC50 was 5.03 in data set [13]; 5.12 in data set [14]; 4.98 in [15]; 5.55 in [16]; 4.73 in data set [17]. For the same molecule, the selectivity ratio in data set [18] is 7.
Regarding `CC(=O)OC[C@H]1O[C@@H](Oc2ccc3c(-c4ccccc4)cc(=O)oc3c2)[C@H](OC(C)=O)[C@@H](OC(C)=O)[C@@H]1OC(C)=O`, the negative logarithm of the IC50 (pIC50) in [1] is 5.00; in data set [2], 4.46.
Turning to `C=C1CC(CC(C)(O)C(O)COc2ccc3ccc(=O)oc3c2O)OC1=O` (stereo not drawn), in data set [8], the pIC50 was 4.92.
Molecule `CN(C)c1ccc(C(c2c(O)c3ccccc3oc2=O)c2c(O)c3ccccc3oc2=O)cc1` had a half-inhibitory concentration (IC50) in [6] of 150 µg/mL.
Turning to `COc1cc2oc(=O)cc(C[Se]C#N)c2cc1OC`, the negative-log IC50 (pIC50) in [16] is 6.09; in data set [17], 4.80. The selectivity ratio in data set [18] is 19.4.
With `N#C/C(=N\Nc1ccccc1)C1=COC(c2cc3ccccc3oc2=O)=CC1C#N` (stereo not drawn), in [7], the pIC50 was 4.85. Also, the inhibition at 50 µM in [19] worked out at 92%.
Turning to `CCC(C)C(=O)c1c(OC)c(CC=C(C)C)c(OC)c2c(-c3ccccc3)cc(=O)oc12` (stereo not drawn), the pIC50 in data set [10] is 4.82.
Take `N=C(N)c1ccc(OCCCCCOc2ccc(C(=N)N)cc2)cc1` [PENTAMIDINE]: the EC50 in data set [20] is 1.75 µg/mL (≈ 5.14 µM); in data set [21], 1.46 µg/mL (≈ 4.29 µM); in data set [6], 1.41 µg/mL (≈ 4.14 µM); in [22], 5.2 µg/mL (≈ 15.3 µM).
Regarding `Cc1cc(=O)oc2cc(OCCCCCOc3cc(Cl)ccc3Oc3ccc(Cl)cc3Cl)ccc12`, the inhibition at 20 µg/mL in [23] is 50%.
As for `COC(=O)C1=C(N)Oc2cc(O)c3c(C)cc(=O)oc3c2C1c1ccc([N+](=O)[O-])cc1` (stereo not drawn), in [2], the negative logarithm of the IC50 (pIC50) was 4.48.
Take `CC(C)=CCOc1ccc2c(-c3ccccc3)cc(=O)oc2c1`: the pIC50 in data set [1] was 4.67; in [2], 4.24.
Regarding `O=c1cc(-c2ccccc2)c2c(O)cc(O)cc2o1`, the pIC50 in data set [10] was 4.22.
With `COc1cc(O[C@@H]2O[C@H](COC(C)=O)[C@@H](OC(C)=O)[C@H](OC(C)=O)[C@H]2OC(C)=O)c2c(-c3ccc(OC(C)=O)c(OC(C)=O)c3)cc(=O)oc2c1`, the results for the pIC50 in data set [6] and in data set [7] were 4.91 and less than 4.05, respectively.
For the molecule `C=C1CC(C/C(C)=C/COc2ccc3ccc(=O)oc3c2O)OC1=O` (stereo not drawn) [CLAUSLACTONE E], the negative logarithm of the IC50 (pIC50) in data set [8] is 5.01.
